Patent publication US10314308B2, “Microbiocidal benzoxaboroles” (SYNGENTA PARTICIPATIONS AG, priority 2015, dated 2019)

Assays:
[1] = tested on: Puccinia Recondita f. sp. Tritici; experiment: Puccinia recondita f. sp. tritici / wheat / leaf disc preventative (brown rust); format: in vivo; conditions: foliar, wheat leaf segments cv Kanzler, inoculated 1 day after application, assessed 7-9 days after application, read-out: disease control
Protocol: 3 Puccinia Recondita f. sp. Tritici/Wheat/Leaf Disc Preventative (Brown Rust) Wheat leaf segments cultivated variety (cv) Kanzler were placed on agar in 24-well plates and sprayed with formulated test compound diluted in water. The leaf disks were inoculated with a spore suspension of the fungus 1 day after application. The inoculated leaf segments were incubated at 19° C. and 75% relative humidity under a light regime of 12/12 h (light/dark) in a climate cabinet and the activity of a compound was assessed as percent disease control compared to untreated when an appropriate level of disease damage appears in untreated check leaf segments (7-9 days after application).

Pythium Ultimum = experiment: Pythium ultimum / liquid culture (seedling damping off); format: cell-based; conditions: Globisporangium ultimum, potato dextrose broth, 24° C., 2-3 days after application, read-out: disease control (inhibition of growth, photometrically)
[2] = tested on: Glomerella Lagenarium(Colletotrichum Ladenarium); experiment: Glomerella lagenarium (Colletotrichum lagenarium) / liquid culture (anthracnose); format: cell-based; conditions: PDB potato dextrose broth, 24° C., 3-4 days after application, read-out: disease control (inhibition of growth, photometrically)
Protocol: (§1) 10 Glomerella Lagenarium(Colletotrichum Ladenarium)/Liquid Culture (Anthracnose) Conidia of the fungus from cryogenic storage were directly mixed into nutrient broth (PDB potato dextrose broth). After placing a DMSO solution of test compound into a 96-well microtiter plate, the nutrient broth containing the fungal spores was added. The test plates were incubated at 24° C. and the inhibition of growth was measured photometrically 3-4 days after application.

[3] = tested on: Mycosphaerella Arachidis(Cercospora Arachidicola); experiment: Mycosphaerella arachidis (Cercospora arachidicola) / liquid culture (early leaf spot); format: cell-based; conditions: PDB potato dextrose broth, 24° C., 4-5 days after application, read-out: disease control (inhibition of growth, photometrically)
Protocol: as §1, with “11 Mycosphaerella Arachidis(Cercospora Arachidicola)/Liquid” for “10 Glomerella Lagenarium(Colletotrichum Ladenarium)/Liquid”, “(Early Leaf Spot)” for “(Anthracnose)”, “determined” for “measured”, “4-5” for “3-4”

[4] = tested on: Mycosphaerella Graminicola(Septoria Tritici); experiment: Mycosphaerella graminicola (Septoria tritici) / liquid culture (Septoria blotch); format: cell-based; conditions: Zymoseptoria tritici, PDB potato dextrose broth, 24° C., 4-5 days after application, read-out: disease control (inhibition of growth, photometrically)
Protocol: as §1, with “12 Mycosphaerella Graminicola(Septoria Tritici)/Liquid” for “10 Glomerella Lagenarium(Colletotrichum Ladenarium)/Liquid”, “(Septoria Blotch)” for “(Anthracnose)”, “determined” for “measured”, “4-5” for “3-4”

Gaeumannomyces Graminis = experiment: Gaeumannomyces graminis / liquid culture (take-all of cereals); format: cell-based; conditions: PDB potato dextrose broth, 24° C., 4-5 days after application, read-out: disease control (inhibition of growth, photometrically)
Protocol: (§2) 13 Gaeumannomyces Graminis/Liquid Culture (Take-all of Cereals) Mycelial fragments of the fungus from cryogenic storage were directly mixed into nutrient broth (PDB potato dextrose broth). After placing a DMSO solution of test compound into a 96-well microtiter plate, the nutrient broth containing the fungal spores is added. The test plates were incubated at 24° C. and the inhibition of growth was determined photometrically 4-5 days after application.

[5] = tested on: Monographella Nivalis(Microdochium Nivale); experiment: Monographella nivalis (Microdochium nivale) / liquid culture (foot rot cereals); format: cell-based; conditions: PDB potato dextrose broth, 24° C., 4-5 days after application, read-out: disease control (inhibition of growth, photometrically)
Protocol: as §2, with “14 Monographella Nivalis(Microdochium Nivale)/Liquid” for “13 Gaeumannomyces Graminis/Liquid”, “(Foot Rot” for “(Take-all of”, “Conidia” for “Mycelial fragments”, “was” for “is”

[6] = tested on: Thanatephorus Cucumeris(Rhizoctonia Solani); experiment: Thanatephorus cucumeris (Rhizoctonia solani) / liquid culture (foot rot, damping-off); format: cell-based; conditions: PDB potato dextrose broth, 24° C., 3-4 days after application, read-out: disease control (inhibition of growth, photometrically)
Protocol: 16 Thanatephorus Cucumeris(Rhizoctonia Solani)/Liquid Culture (Foot Rot, Damping-Off) Mycelia fragments of a newly grown liquid culture of the fungus were directly mixed into nutrient broth (PDB potato dextrose broth). After placing a DMSO solution of the test compounds into a 96-well microtiter plate at an application rate of 200 ppm, the nutrient broth containing the fungal material was added. The test plates were incubated at 24° C. and the inhibition of growth was determined photometrically 3-4 days after application.

Plasmopara Viticola = experiment: whole plant or invertebrate; format: in vivo; conditions: foliar, read-out: disease control
[7] = tested on: Botryotinia Fuckeliana(Botrytis Cinerea); experiment: Botryotinia fuckeliana (Botrytis cinerea) / liquid culture (gray mould); format: cell-based; conditions: Vogels broth, 24° C., 3-4 days after application, read-out: disease control (inhibition of growth, photometrically)
Protocol: as §1, with “9 Botryotinia Fuckeliana(Botrytis Cinerea)/Liquid” for “10 Glomerella Lagenarium(Colletotrichum Ladenarium)/Liquid”, “(Gray Mould)” for “(Anthracnose)”, “(Vogels” for “(PDB potato dextrose”, “determined” for “measured”

Fusarium Culmorum = experiment: microbe, parasite or virus in culture; format: cell-based; conditions: read-out: disease control (inhibition of growth, photometrically)
Sclerotinia Sclerotiorum = experiment: Sclerotinia sclerotiorum / liquid culture (cottony rot); format: cell-based; conditions: PDB potato dextrose broth, 24° C., 3-4 days after application, read-out: disease control (inhibition of growth, visually)
Protocol: 17 Sclerotinia Sclerotiorum/Liquid Culture (Cottony Rot) Mycelia fragments of a newly grown liquid culture of the fungus were directly mixed into nutrient broth (PDB potato dextrose broth). After placing a (DMSO) solution of the test compounds into a microtiter plate (96-well format) the nutrient broth containing the fungal material was added. The test plates were incubated at 24° C. and the inhibition of growth was determined visually 3-4 days after application.

[8] = tested on: Phaeosphaeria Nodorum (Septoria Nodorum); experiment: Phaeosphaeria nodorum (Septoria nodorum) / wheat / leaf disc preventative (glume blotch); format: in vivo; conditions: Parastagonospora nodorum, foliar, wheat leaf segments cv Kanzler, inoculated 2 days after application, assessed 5-7 days after application, read-out: disease control
Protocol: 5 Phaeosphaeria Nodorum (Septoria Nodorum)/Wheat/Leaf Disc Preventative (Glume Blotch) Wheat leaf segments cv Kanzler were placed on agar in a 24-well plate and sprayed with formulated test compound diluted in water. The leaf disks were inoculated with a spore suspension of the fungus 2 days after application. The inoculated test leaf disks were incubated at 20° C. and 75% relative humidity under a light regime of 12/12 h (light/dark) in a climate cabinet and the activity of a compound was assessed as percent disease control compared to untreated when an appropriate level of disease damage appears in untreated check leaf disks (5-7 days after application).

Cc1cc(-c2cc3c(cc2Cl)COB3O)c(C)s1 [Compound 90]
≥ 80%: pest or weed control at 200 ppm [1] | inhibition at 20 ppm (Pythium Ultimum) | inhibition at 20 ppm [2] | inhibition at 20 ppm [3] | inhibition at 20 ppm [4] | inhibition at 20 ppm (Gaeumannomyces Graminis) | inhibition at 20 ppm [5] | inhibition at 20 ppm [6]

OB1OCc2cc(Cl)c(-c3ncno3)cc21 [Compound 14, 5-(5-chloro-1-hydroxy-3H-2,1-benzoxaborol-6-yl)-1,2,4-oxadiazole]
175 to 177 °C: melting point
≥ 80%: pest or weed control at 200 ppm (Plasmopara Viticola) | pest or weed control at 200 ppm [1] | inhibition at 20 ppm (Pythium Ultimum) | inhibition at 20 ppm [7] | inhibition at 20 ppm [2] | inhibition at 20 ppm [3] | inhibition at 20 ppm [4] | inhibition at 20 ppm (Gaeumannomyces Graminis) | inhibition at 20 ppm [5] | inhibition at 20 ppm (Fusarium Culmorum) | inhibition at 20 ppm [6] | inhibition at 20 ppm (Sclerotinia Sclerotiorum)

OB1OCc2ccc(-c3ncno3)cc21 [Compound 49]
179 to 180 °C: melting point
≥ 80%: pest or weed control at 200 ppm (Plasmopara Viticola) | pest or weed control at 200 ppm [8] | inhibition at 20 ppm (Pythium Ultimum) | inhibition at 20 ppm [7] | inhibition at 20 ppm [2] | inhibition at 20 ppm [3] | inhibition at 20 ppm [4] | inhibition at 20 ppm (Gaeumannomyces Graminis) | inhibition at 20 ppm [5] | inhibition at 20 ppm (Fusarium Culmorum) | inhibition at 20 ppm [6] | inhibition at 20 ppm (Sclerotinia Sclerotiorum)

Cc1cc(-c2cc3c(cc2Cl)COB3O)c(C#N)o1 [Compound 66]
≥ 80%: pest or weed control at 200 ppm (Plasmopara Viticola) | pest or weed control at 200 ppm [1] | inhibition at 20 ppm (Pythium Ultimum) | inhibition at 20 ppm (Gaeumannomyces Graminis)

OB1OCc2cc(Cl)c(-c3ncon3)cc21 [Compound 96]
≥ 80%: pest or weed control at 200 ppm [1] | inhibition at 20 ppm (Pythium Ultimum) | inhibition at 20 ppm [7] | inhibition at 20 ppm [2] | inhibition at 20 ppm [3] | inhibition at 20 ppm [4] | inhibition at 20 ppm (Gaeumannomyces Graminis) | inhibition at 20 ppm [5] | inhibition at 20 ppm (Fusarium Culmorum) | inhibition at 20 ppm [6] | inhibition at 20 ppm (Sclerotinia Sclerotiorum)
180 to 203 °C: melting point

OB1OCc2ccc(-c3ncon3)cc21 [Compound 92]
209 to 211 °C: melting point
≥ 80%: pest or weed control at 200 ppm [1] | inhibition at 20 ppm (Pythium Ultimum) | inhibition at 20 ppm [7] | inhibition at 20 ppm [2] | inhibition at 20 ppm [3] | inhibition at 20 ppm [4] | inhibition at 20 ppm (Gaeumannomyces Graminis) | inhibition at 20 ppm [5] | inhibition at 20 ppm (Fusarium Culmorum) | inhibition at 20 ppm [6] | inhibition at 20 ppm (Sclerotinia Sclerotiorum)

Cc1nc(C)c(-c2cc3c(cc2Cl)COB3O)s1 [Compound 1]
155 to 160 °C: melting point
≥ 80%: pest or weed control at 200 ppm (Plasmopara Viticola) | pest or weed control at 200 ppm [1] | inhibition at 20 ppm (Pythium Ultimum) | inhibition at 20 ppm [4] | inhibition at 20 ppm (Gaeumannomyces Graminis) | inhibition at 20 ppm [5] | inhibition at 20 ppm (Fusarium Culmorum)

OB1OCc2cc(F)c(-c3ccsc3)cc21 [Compound 12, 5-fluoro-1-hydroxy-6-(3-thienyl)-3H-2,1-benzoxaborole]
≥ 80%: pest or weed control at 200 ppm (Plasmopara Viticola) | pest or weed control at 200 ppm [1] | inhibition at 20 ppm (Pythium Ultimum) | inhibition at 20 ppm [7] | inhibition at 20 ppm [3] | inhibition at 20 ppm [4] | inhibition at 20 ppm (Gaeumannomyces Graminis) | inhibition at 20 ppm [5] | inhibition at 20 ppm (Fusarium Culmorum) | inhibition at 20 ppm [6] | inhibition at 20 ppm (Sclerotinia Sclerotiorum)

Cc1cscc1-c1cc2c(cc1F)COB2O [Compound 50]
≥ 80%: pest or weed control at 200 ppm (Plasmopara Viticola) | pest or weed control at 200 ppm [8] | inhibition at 20 ppm (Pythium Ultimum) | inhibition at 20 ppm [7] | inhibition at 20 ppm [2] | inhibition at 20 ppm [3] | inhibition at 20 ppm [4] | inhibition at 20 ppm (Gaeumannomyces Graminis) | inhibition at 20 ppm [5] | inhibition at 20 ppm (Fusarium Culmorum) | inhibition at 20 ppm [6] | inhibition at 20 ppm (Sclerotinia Sclerotiorum)

COc1nccc(-c2cc3c(cc2Cl)COB3O)c1Cl [Compound 73]
≥ 80%: pest or weed control at 200 ppm (Plasmopara Viticola) | pest or weed control at 200 ppm [1] | inhibition at 20 ppm (Pythium Ultimum) | inhibition at 20 ppm [7] | inhibition at 20 ppm [2] | inhibition at 20 ppm [3] | inhibition at 20 ppm [4] | inhibition at 20 ppm (Gaeumannomyces Graminis) | inhibition at 20 ppm [5] | inhibition at 20 ppm (Fusarium Culmorum) | inhibition at 20 ppm [6] | inhibition at 20 ppm (Sclerotinia Sclerotiorum)

Cc1ccc(-c2cc3c(cc2Cl)COB3O)s1 [Compound 38]
≥ 80%: pest or weed control at 200 ppm (Plasmopara Viticola) | pest or weed control at 200 ppm [1] | inhibition at 20 ppm (Pythium Ultimum) | inhibition at 20 ppm [7] | inhibition at 20 ppm [2] | inhibition at 20 ppm [3] | inhibition at 20 ppm [4] | inhibition at 20 ppm (Gaeumannomyces Graminis) | inhibition at 20 ppm [5] | inhibition at 20 ppm (Fusarium Culmorum) | inhibition at 20 ppm [6] | inhibition at 20 ppm (Sclerotinia Sclerotiorum)

OB1OCc2cc(Cl)c(-c3cncs3)cc21 [Compound 25]
≥ 80%: pest or weed control at 200 ppm (Plasmopara Viticola) | pest or weed control at 200 ppm [8] | inhibition at 20 ppm (Pythium Ultimum) | inhibition at 20 ppm [7] | inhibition at 20 ppm [2] | inhibition at 20 ppm [3] | inhibition at 20 ppm [4] | inhibition at 20 ppm (Gaeumannomyces Graminis) | inhibition at 20 ppm [5] | inhibition at 20 ppm (Fusarium Culmorum) | inhibition at 20 ppm [6] | inhibition at 20 ppm (Sclerotinia Sclerotiorum)

OB1OCc2cc(Cl)c(-c3ccco3)cc21 [Compound 2, 5-chloro-6-(2-furyl)-1-hydroxy-3H-2,1-benzoxaborole]
≥ 80%: pest or weed control at 200 ppm (Plasmopara Viticola) | pest or weed control at 200 ppm [8] | inhibition at 20 ppm (Pythium Ultimum) | inhibition at 20 ppm [7] | inhibition at 20 ppm [2] | inhibition at 20 ppm [3] | inhibition at 20 ppm [4] | inhibition at 20 ppm [5] | inhibition at 20 ppm (Fusarium Culmorum) | inhibition at 20 ppm [6] | inhibition at 20 ppm (Sclerotinia Sclerotiorum)
142 to 147 °C: melting point

CO/N=C/c1ccc(-c2cc3c(cc2F)COB3O)o1 [Compound 28]
125 to 140 °C: melting point
≥ 80%: pest or weed control at 200 ppm [1] | inhibition at 20 ppm (Pythium Ultimum) | inhibition at 20 ppm [2] | inhibition at 20 ppm [4]
